From article PMC4772543, “Immune responses to Mycobacterial heat shock protein 70 accompany self-reactivity to human BiP in rheumatoid arthritis” (Scientific Reports, 2016)

Legend:
[1] = tested on: PBMCs from shared epitope (SE)-positive RA patients; test: Proliferation of PBMCs from RA patients in response to MycHSP70-derived peptides (3H-thymidine uptake); type: cell-based, human
Protocol: (§1) Figure 3 MycHSP70_287–306 was a HLA-DR4-restricted epitope in RA. (A) The proliferation of PBMCs in RA patients (Shared epitope (SE) +/+ n = 12, SE +/− n = 22, SE−/− n = 9) and HDs (SE +/− n = 10) in response to MycHSP70_287–306. Proliferation was determined by the incorporation of [3]-H thymidine. The stimulation index (SI) was calculated using the following equation: (median thymidine uptake to an antigen)/(median thymidine uptake in the absence of an antigen). Horizontal line: the median. (B) Amino acid sequences of MycHSP70 (lower lines) and human BiP (upper lines) near the epitopes. Epitope sequences are indicated in bold letters. […]
(§2) PBMCs (1 × 10^6/mL) isolated with Ficoll-Paque (GE Healthcare) were cultured in the presence or absence of each peptide (10 μg/mL) with RPMI 1640 medium supplemented with 10% human serum, 2 mM L-glutamine, 100 U/ml penicillin, and 100 μg/ml streptomycin in a humidified incubator at 37 °C, 5% CO2, for 96 hours. […] Counts per minute were measured with a scintillation counter. In some experiments, the culture supernatants were collected after a 72-hour incubation and cytokine concentrations were measured in the culture supernatants by a human IFN-γ high sensitivity ELISA kit and human IL-17 high sensitivity ELISA kit (eBioscience). […]

[2] = tested on: HLA-DR4-positive HD PBMCs; test: Proliferation of healthy donor PBMCs in response to peptide (3H-thymidine uptake); type: cell-based, human; conditions: HLA-DR4-positive healthy donors (SE +/− n = 10), peptide 10 μg/mL
Protocol: as §1, §2

[3] = tested on: splenic CD4+ T cells from CIA-induced DBA/1 J mice; test: Splenic CD4+ T cell recall culture from CIA mice after oral peptide (proliferation, cytokine ELISA); type: cell-based, mouse
Protocol: (A,B) The MycHSP70_287–306 peptide or control (PBS alone) was orally administered to bovine type II collagen-immunized DBA/1 J mice after the occurrence of CIA for 5 continuous days (n = 12). Mice were sacrificed on day 35. Arthritis scores were measured by finger and paw swelling, and histological scores were measured by cell infiltration (C), pannus formation (P), and bone destruction (B). (C) Splenic CD4^+ T cell proliferation from CIA-induced DBA/1 J mice in response to a recall antigen (Ag) stimulation (MycHSP70_287–306 and BiP336–355 epitopes, and heat-denatured bovine type II collagen (BC II)). Proliferation was determined by[3]-H thymidine incorporation. (D) Serum anti-BiP and anti-BC II antibody titers were measured by ELISA. (E,F) Mouse IL-10 and TGF-beta1 concentrations in the splenic CD4^+ T cell culture were measured by ELISA.
HLA-DR4 transgenic mice were obtained from Taconic, immunized twice (day 0, 14) with 100 μg of MycHSP70 with the same volume of complete Freund’s adjuvant subcutaneously into the tails, and sacrificed on day 21. MACS-purified CD4^+ T cells (1 × 10^5/mL) were cultured with irradiated splenocytes (1 × 10^6/mL) and an antigen (10 μg/mL) in RPMI 1640 medium supplemented with 5% FCS, 2 mM L-glutamine, 100 U/ml penicillin, 100 μg/ml streptomycin, and 5 × 10^−5 M 2-mercaptoethanol in a humidified incubator at 37 °C, 5% CO2, for 72 h. ^3H-thymidine was pulsed to each well, cells were harvested after an 18-hour incubation, and analyzed with a scintillation counter.
CIA in the background of DBA/1 J female mice (SLC Japan) was performed and arthritis scores were acquired as previously described. In the therapeutic experiments, mice were administered 200 μg of MycHSP287–306 peptides orally for 5 continuous days following the onset of arthritis. Mice were sacrificed on day 35, and the CD4^+ T cell culture was performed as described above. Mouse cytokine concentrations in the supernatants were measured using a mouse IL-10 ELISA kit and mouse/human TGF-beta 1 ELISA kit (eBioscience) according to the manufacturer’s protocol. Tissue samples were embedded in paraffin wax after 10% formaldehyde fixation and decalcification. Sections were stained with hematoxylin and eosin. Synovial tissues were graded by mononuclear cell infiltration, pannus formation, and cartilage erosion, as described previously. All animal experiments were conducted in accordance with Institutional and National Guidelines, and the protocols were approved by the Ethical Committee on Animal Experiments of the University of Tokyo. […]
The experimental protocol was the same as Figure 6.
(A)(B)Mouse IL-17 and IFN-gamma concentrations in the splenic CD4+ T cell
culture was measured by ELISA (Mouse cytokine ELISA ready-set-go,
eBioscience) according to the manufacture’s protocol. […]

[4] = MycHSP70_287–306 and BiP336–355 recall stimulations, peptide-treated mice, ELISA
[5] = mice given MycHSP70_287–306 orally vs PBS, 3H-thymidine

DRTRKPFQSVIADTGISVSE [MycHSP70_287–306] was tested, and the “peptide-induced PBMC proliferation under blockade of HLA-DR” value ([1]; HLA-DR4-positive RA patients n = 6, anti-HLA DR monoclonal antibody (L243) 10 μg/mL) was “clearly inhibited”, the “proliferation of PBMCs, mean stimulation index” value ([1]; screen of 43 MycHSP70-derived 20-mer peptides, 10 μg/mL, 96 hours, 3H-thymidine uptake, HLA-DR4-positive RA patients n = 20) was “highest proliferative responses” and the “peptide-induced proliferation of HD PBMCs” value [2] was “not observed”. For the same sequence, the “secretion of IL-10 from CD4+ T cells” value [3, 4] was “induced”, the “secretion of TGF-β1 from CD4+ T cells” value [3, 4] was “induced” and the “proliferation of CD4+ T cells in response to BiP336–355 recall” value [3, 5] was “reduced”. The “proliferation of CD4+ T cells in response to MycHSP70_287–306 recall” value [3, 5] was “reduced”, the “bovine type II collagen-specific T cell proliferation” value ([3]; mice given MycHSP70_287–306 orally vs PBS, heat-denatured BC II recall) was “suppressed” and the “pro-inflammatory cytokine secretion from CD4+ T cells” value ([3]; mouse IL-17 and IFN-gamma by ELISA, mice given peptide orally vs PBS (Supplementary Figure S2)) was “suppressed”.
